Measurements as given in article PMC8634379, “From the Design to the In Vivo Evaluation of Benzohomoadamantane-Derived Soluble Epoxide Hydrolase Inhibitors for the Treatment of Acute Pancreatitis” (Journal of Medicinal Chemistry, 2021).
Converted amounts (≈) assume the structure as drawn.

Columns and labels:
[1] = Solubility in 1% DMSO: 99% PBS (nephelometry); format: physicochemical; details: PBS with 1% DMSO, 1% DMSO: 99% PBS buffer solution, 37 °C
Protocol: A 10 mM stock solution of the compound was serially diluted in 100% DMSO and 1 μL of this solution was added to a 384-well UV-transparent plate (Greiner) containing 99 μL of PBS. The plate was incubated at 37 °C for 2 h and the light scattering was measured in a Nephelostar Plus reader (BMG LABTECH). The data were fitted to a segmented linear regression for measuring the compound solubility.

Microsomal stability [2] = format: in vitro ADME, mice; details: after 60 min incubation, NADP, 37 °C
Protocol: (§1) The human, rat, and mice recombinant microsomes employed were purchased from Tebu–Xenotech. […] Samples (75 μL) were taken from each well at 0, 10, 20, 40, and 60 min and transferred to a plate containing 4 °C 75 μL of acetonitrile and 30 μL of 0.5% formic acid in water were added for improving the chromatographic conditions. The plate was centrifuged ([…], 30 min) and supernatants were taken and analyzed by an ultraperformance liquid chromatograph–tandem mass spectrometer (Xevo-TQD, Waters) by employing a BEH C18 column and an isocratic gradient of 0.1% formic acid in water: 0.1% formic acid acetonitrile (60:40). The metabolic stability of the compounds was calculated from the logarithm of the remaining compounds at each of the time points studied.

human LOX-5 (hLOX-5) = biological target: T1, human LOX-5 (hLOX-5) (Homo sapiens, UniProt P09917); assay: Inhibition of hLOX-5; format: biochemical
T1 construct: purchased Cayman Chemical
T1 sequence (P09917 1-674): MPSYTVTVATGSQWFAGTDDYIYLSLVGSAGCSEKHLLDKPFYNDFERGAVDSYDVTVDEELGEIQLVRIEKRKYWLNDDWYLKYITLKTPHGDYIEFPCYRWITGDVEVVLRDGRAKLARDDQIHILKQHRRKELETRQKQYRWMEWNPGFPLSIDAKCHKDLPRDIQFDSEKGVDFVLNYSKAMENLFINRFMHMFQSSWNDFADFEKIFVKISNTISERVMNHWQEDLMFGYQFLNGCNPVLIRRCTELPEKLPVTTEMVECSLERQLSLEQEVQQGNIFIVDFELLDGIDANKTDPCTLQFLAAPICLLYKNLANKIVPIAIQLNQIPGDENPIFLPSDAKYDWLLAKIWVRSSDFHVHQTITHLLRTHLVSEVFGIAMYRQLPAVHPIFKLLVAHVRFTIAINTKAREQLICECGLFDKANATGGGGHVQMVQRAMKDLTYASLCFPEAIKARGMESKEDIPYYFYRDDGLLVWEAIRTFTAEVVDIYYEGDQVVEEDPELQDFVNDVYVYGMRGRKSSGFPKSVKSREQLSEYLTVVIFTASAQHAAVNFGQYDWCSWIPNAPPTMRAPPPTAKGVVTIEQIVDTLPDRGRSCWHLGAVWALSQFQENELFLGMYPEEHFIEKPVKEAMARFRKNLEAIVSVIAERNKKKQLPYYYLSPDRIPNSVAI
Protocol: AA and 2′,7′-dichlorodihydrofluorescein diacetate (H2DCFDA) were obtained from Sigma. Human recombinant LOX-5 was purchased from Cayman Chemical. For the determination of hLOX-5 activity, the method described by Pufahl et al. was followed.[51] The assay solution consisted of 50 mM Tris (pH 7.5), 2 mM EDTA, 2 mM CaCl2, 3 μM AA, 10 μM ATP, 10 μM H2DCFDA, and 100 mU/well hLOX-5. For the enzyme inhibition studies, the compounds to be tested were added to the assay solution prior to AA and ATP and were preincubated for a period of 10 min at room temperature, after which AA and ATP were added. The enzymatic reaction was carried out for 20 min and terminated by the addition of 40 μL of acetonitrile.

Caco-2 cell permeability = format: in vitro ADME; details: human; for Papp A→B at 2 h, 10 µM / Papp B→A at 2 h, 10 µM: 37 °C; for efflux ratio at 2 h, 10 µM: ER = (Papp B→A)/(Papp A→B)
Protocol: The Caco-2 cells were cultured to confluency, trypsinized, and seeded onto a 96-filter transwell insert (Corning) at a density of ∼10,000 cells/well in DMEM cell culture medium supplemented with 10% fetal bovine serum, 2 mM L-glutamine, and 1% penicillin/streptomycin. Confluent Caco-2 cells were subcultured at passages 58–62 and grown in a humidified atmosphere of 5% CO2 at 37 °C. […] The cell monolayers were used for transport studies 21 days post seeding. […] Stock solutions were made in dimethyl sulfoxide (DMSO) and further diluted in HBSS (final DMSO concentration 1%). Each compound and reference compounds (Colchicine, E3S) were all tested at a final concentration of 10 μM. For A → B directional transport, the donor working solution was added to the apical (A) compartment and the transport media as receiver working solution was added to the basolateral (B) compartment. For B → A directional transport, the donor working was added to the basolateral (B) compartment and transport media as receiver working solution was added to the apical (A) compartment. The cells were incubated at 37 °C for 2 h with gentle stirring.
At the end of the incubation, samples were taken from both donor and receiver compartments and transferred into 384-well plates and analyzed by ultraperformance liquid chromatography–tandem mass spectrometry (UPLC–MS/MS). The detection was performed using an ACQUITY UPLC/Xevo TQD System.

human COX-2 (hCOX-2) = biological target: T2, human COX-2 (hCOX-2) (Homo sapiens, UniProt P35354); assay: Inhibition of hCOX-2 (Eurofins, catalogue reference 4186); format: biochemical; details: for IC50: performed by Eurofins
T2 sequence (P35354 18-604): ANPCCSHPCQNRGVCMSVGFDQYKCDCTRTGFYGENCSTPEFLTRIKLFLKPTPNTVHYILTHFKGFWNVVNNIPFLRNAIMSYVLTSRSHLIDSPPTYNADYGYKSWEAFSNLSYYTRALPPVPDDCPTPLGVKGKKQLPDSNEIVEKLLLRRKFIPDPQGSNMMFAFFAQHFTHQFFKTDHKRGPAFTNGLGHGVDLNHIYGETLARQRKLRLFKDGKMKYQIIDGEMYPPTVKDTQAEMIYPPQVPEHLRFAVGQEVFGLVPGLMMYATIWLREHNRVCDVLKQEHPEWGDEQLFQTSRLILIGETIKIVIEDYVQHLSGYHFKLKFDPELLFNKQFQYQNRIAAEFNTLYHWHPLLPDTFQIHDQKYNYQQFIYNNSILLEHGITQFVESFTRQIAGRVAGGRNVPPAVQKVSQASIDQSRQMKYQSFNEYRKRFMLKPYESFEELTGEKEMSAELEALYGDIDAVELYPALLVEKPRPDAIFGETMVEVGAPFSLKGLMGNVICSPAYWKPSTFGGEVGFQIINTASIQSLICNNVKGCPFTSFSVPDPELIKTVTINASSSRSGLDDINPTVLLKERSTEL

Microsomal stability [3] = details: after 60 min incubation, NADP, 37 °C
Protocol: as §1

Microsomal stability [4] = format: in vitro ADME, human; details: after 60 min incubation, NADP, 37 °C
Protocol: as §1

With `CC12CC3CC(NC(=O)N[C@H]4CC[C@H](Oc5ccc(C(=O)O)cc5)CC4)(CC(C1)c1ccccc13)C2` [Compound 20, 4-[((1r,4r)-4-(3-(9-Methyl-5,6,8,9,10,11-Hexahydro-7H-5,9:7,11-dimethanobenzo[9]annulen-7-yl)ureido)cyclohexyl)oxy]benzoic Acid] the solubility at 2 h [1] was 4 µM (≈ 1.95 µg/mL), the “microsomal stability, percentage of remaining compound (mice)” value (Microsomal stability [2]) was 10% and the IC50 (human LOX-5 (hLOX-5)) was > 100 µM. For the same compound, the “inhibition of hLOX-5 (selectivity)” value (human LOX-5 (hLOX-5)) was “Neither 20 nor the halogenated analogues 22 and 23 significantly inhibited”, the Papp A→B at 2 h, 10 µM (Caco-2 cell permeability) was 1 ×10⁻⁶ cm/s and the Papp B→A at 2 h, 10 µM (Caco-2 cell permeability) was 12.4 ×10⁻⁶ cm/s. The efflux ratio at 2 h, 10 µM (Caco-2 cell permeability) was 12.4, the “inhibition of hCOX-2 (selectivity)” value (human COX-2 (hCOX-2)) was “Neither 20 nor the halogenated analogues 22 and 23 significantly inhibited” and the IC50 (human COX-2 (hCOX-2)) was > 10 µM. The “microsomal stability, percentage of remaining compound (rat)” value (Microsomal stability [3]) was 2% and the “microsomal stability, percentage of remaining compound (human)” value (Microsomal stability [4]) was 70%.
For `O=C(NC12CC3CC(Cl)(CC(C1)c1ccccc13)C2)N[C@H]1CC[C@H](Oc2ccc(C(=O)O)cc2)CC1` [Compound 22, 4-[((1r,4r)-4-(3-(9-Chloro-5,6,8,9,10,11-hexahydro-7H-5,9:7,11-dimethanobenzo[9]annulen-7-yl)ureido)cyclohexyl)oxy]benzoic Acid], the solubility at 2 h [1] was 13 µM (≈ 6.62 µg/mL), the “microsomal stability, percentage of remaining compound (mice)” value (Microsomal stability [2]) was 29% and the IC50 (human LOX-5 (hLOX-5)) was > 100 µM. For the same compound, the Papp A→B at 2 h, 10 µM (Caco-2 cell permeability) was 2.15 ×10⁻⁶ cm/s, the Papp B→A at 2 h, 10 µM (Caco-2 cell permeability) was 4.66 ×10⁻⁶ cm/s and the IC50 (human COX-2 (hCOX-2)) was > 10 µM. For the same compound, the “microsomal stability, percentage of remaining compound (rat)” value (Microsomal stability [3]) was 52% and the “microsomal stability, percentage of remaining compound (human)” value (Microsomal stability [4]) was 89%.
For `O=C(NC12CC3CC(F)(CC(C1)c1ccccc13)C2)N[C@H]1CC[C@H](Oc2ccc(C(=O)O)cc2)CC1` [Compound 23, 4-[((1r,4r)-4-(3-(9-Fluoro-5,6,8,9,10,11-hexahydro-7H-5,9:7,11-dimethanobenzo[9]annulen-7-yl)ureido)cyclohexyl)oxy]benzoic Acid], the solubility at 2 h [1] was 7 µM (≈ 3.45 µg/mL), the “microsomal stability, percentage of remaining compound (mice)” value (Microsomal stability [2]) was 36% and the IC50 (human LOX-5 (hLOX-5)) was > 100 µM. The “inhibition of hLOX-5 (selectivity)” value (human LOX-5 (hLOX-5)) was “Neither 20 nor the halogenated analogues 22 and 23 significantly inhibited”, the Papp A→B at 2 h, 10 µM (Caco-2 cell permeability) was 0.09 ×10⁻⁶ cm/s and the Papp B→A at 2 h, 10 µM (Caco-2 cell permeability) was 21.9 ×10⁻⁶ cm/s. The efflux ratio at 2 h, 10 µM (Caco-2 cell permeability) was 244, the “inhibition of hCOX-2 (selectivity)” value (human COX-2 (hCOX-2)) was “Neither 20 nor the halogenated analogues 22 and 23 significantly inhibited” and the IC50 (human COX-2 (hCOX-2)) was > 10 µM. The “microsomal stability, percentage of remaining compound (rat)” value (Microsomal stability [3]) was 60% and the “microsomal stability, percentage of remaining compound (human)” value (Microsomal stability [4]) was 77%.
